We go through seven compounds from paper PMC8625207, “Antikinetoplastid Activity of Sesquiterpenes Isolated from the Zoanthid Palythoa aff. clavata” (Pharmaceuticals, 2021).

In series [1] the test system is T. cruzi. Details: method as in PMID 17950283. The note with it: read-out: IC50 against T. cruzi; cited from earlier work.
Series [2] has as its system promastigotes of Leishmania amazonensis strain (MHOM/BR/77/LTB0016). Kind of series: alamarBlue activity against promastigotes of L. amazonensis. The note with it: for Promastigotes L. amazonensis SI: selectivity index CC50/IC50; for IC50: Leishmania amazonensis, 72 h of incubation, mean with standard deviation. The series is classed as cell-based. The procedure:
(§1) For the anti-leishmanicidal experiments, promastigotes and amastigotes of Leishmania amazonensis strain (MHOM/BR/77/LTB0016) and promastigotes of Leishmania donovani strain (MHOM/IN/90/GE1F8R) were used, and they were maintained in RPMI 1640 medium (Gibco, Waltham, MA, USA) at 26 °C. For the trypanocidal experiments, epimastigotes of Trypanosoma cruzi (Y strain) were used, and they were maintained in liver infusion tryptose (LIT) medium supplemented with 10% of fetal bovine serum (FBS) at 26 °C. Murine macrophages J774A.1 (ATCC #TIB-67), maintained in DMEM medium at 37 °C with 5% CO2, were used for the cytotoxic activity assays.
(§2) For the activity against extracellular parasites of kinetoplastid, Leishmania and Trypanosoma parasites, in a 96-well plate, serial dilutions of the compounds were added with dilutions of 10^5 parasites per well and a 10% of alamarBlue Cell Viability Reagent® (Thermo Fisher Scientific, Waltham, MA, USA). After 72 h of incubation at 26 °C, the fluorescence of each well was measured in the EnSpire Multimode Plate Reader® (PerkinElmer, Thermo Fisher Scientific, Madrid, Spain). The inhibitory concentration 50 (IC50) was calculated by nonlinear regression analysis.

A short description of series [3]: alamarBlue cytotoxicity on murine macrophages. To be noted: mouse, J774A.1 macrophages; 24 h of incubation; read-out: Macrophages J744A.1 CC50. The series is classed as cell-based.
Series [4] concerns promastigotes of Leishmania donovani strain (MHOM/IN/90/GE1F8R). The series is described as follows: alamarBlue activity against promastigotes of L. donovani. Format: cell-based. The note with it: for Promastigotes L. donovani SI: selectivity index CC50/IC50 (macrophages J744A.1 vs parasite); for IC50: Leishmania donovani, 72 h of incubation, mean with standard deviation. As for the experimental part: as §1, §2
A general note: The colour change of resazurin is a common sign of viable cells or microbes.

Series [5] deals with amastigotes of L. amazonensis. The series is described as follows: alamarBlue activity against intracellular amastigotes of L. amazonensis in murine macrophages. Format: cell-based, Leishmania amazonensis. To be noted: for Amastigotes L. amazonensis SI: selectivity index CC50/IC50; for IC50: Leishmania amazonensis, Macrophage, 24 h of incubation, intracellular form in murine macrophages. The procedure: as §1
To determinate the IC50 against the intracellular form of the parasite amastigotes of L. amazonensis, the alamarBlue colorimetric method was also used. In a 96-well plate, murine macrophages were added in a concentration of 10^4 cells per well. After adherence of the cells, 10^5 promastigotes of the parasite were added to reach 1:10 cell:parasites per well. After 24 h of incubation at 37 °C with 5% of CO2 for the internalization of the parasite, the wells were washed, and serial dilutions of the compounds were added. After an incubation of 24 h with the compounds, the wells were washed, and the macrophages were broken with a solution of SDS (Sodium dodecyl sulfate) at 0.05% for 30 s. After adding fresh RPMI medium, we added 10% of alamarBlue, and the plates were incubated at 26 °C for 96 h. Finally, the fluorescence was measured by using the EnSpire Multimode Plate Reader® (PerkinElmer, Thermo Fisher Scientific, Madrid, Spain), and the IC50 of each compound was calculated.

Series [6] relates to promastigotes of L. amazonensis. Kind of series: Reactive oxygen species detection, CellROX Deep Red. Format: cell-based, Leishmania amazonensis. The note with it: IC90, 24 h.
Series [7] concerns L. amazonensis. Kind of series: Mitochondrial membrane potential, JC-1. The series is classed as cell-based, Leishmania amazonensis. To be noted: IC90, 24 h. The procedure:
The alterations on the mitochondrial membrane potential were measured by using JC-1® reagent. The results were expressed in percentage of variations in the mitochondrial membrane potential relative to the untreated control.
The alterations in the mitochondrial membrane potential were determined by using the JC-1 Mitochondrial Membrane Potential Assay Kit® (Cayman Chemical, Ann Arbor, MI, USA). […] Finally, using the EnSpire Multimode Plate Reader® (PerkinElmer, Thermo Fisher Scientific, Madrid, Spain), we measured the fluorescence, and the results were expressed in the percentage relative to the negative control (without any treatment), using the ratio 595 nm/535 nm (aggregates/monomers). All of the experiments were performed in triplicate in three different days (n = 3).

In series [8] the test system is epimastigotes of Trypanosoma cruzi (Y strain). Kind of series: alamarBlue activity against epimastigotes of T. cruzi. The series is classed as cell-based. To be noted: for IC50: Trypanosoma cruzi, 72 h of incubation, mean with standard deviation; for Epimastigotes T. cruzi SI: selectivity index CC50/IC50. The procedure:
as §1, §2

Series [9] concerns promastigotes of L. amazonensis. Kind of series: Plasmatic membrane permeability, SYTOX Green. To be noted: IC90, 24 h. The series is classed as cell-based, Leishmania amazonensis.
Series [10] has the same test system. The series is described as follows: Chromatin condensation, Hoechst 33342/propidium iodide. To be noted: IC90, 24 h. The series is classed as cell-based, Leishmania amazonensis.
In series [11] the test system is epimastigotes of T. cruzi. The series is described as above. The series is classed as cell-based, Trypanosoma cruzi. To be noted: IC90, 24 h.
The subject of series [12] is L. amazonensis. The series is described as follows: ATP levels, CellTiter-Glo. To be noted: IC90, 24 h, negative control = 100%. Format: cell-based, Leishmania amazonensis. As for the experimental part:
(§3) The levels of ATP were measured by using CellTiter-Glo® reagent, and values of luminescence were obtained by the EnSpire Multimode Plate Reader®. Results were processed and represented in Figure 4 as the percentage of ATP relative to the negative control (without treatment) that corresponds with 100% of ATP level.
(§4) The levels of ATP in the wells were measured by using the CellTiter-Glo® Luminescent Cell Viability Assay (Promega, WI, USA). […] These volumes were transferred to a white plate, and 25 μL of kit was added to each well. After 10 min of incubation at room temperature, the luminescence was determined by using the EnSpire Multimode Plate Reader® (PerkinElmer), and the results were expressed as the percentage of production of ATP relative to the negative control (without any treatment). All of the experiments were performed in triplicate in three different days (n = 3).
(Cellular ATP, detected with luciferase, serves as a proxy for viable cell number.)

Series [13] relates to epimastigotes of T. cruzi. Kind of series: Reactive oxygen species detection, CellROX Deep Red. The note with it: IC90, 24 h. The series is classed as cell-based, Trypanosoma cruzi.
The test system of series [14] is T. cruzi. Kind of series: ATP levels, CellTiter-Glo. The series is classed as cell-based, Trypanosoma cruzi. The note with it: IC90, 24 h, negative control = 100%. The procedure: as §3, §4
Series [15] deals with epimastigotes of T. cruzi.
In series [16] the test system is promastigotes of L. donovani. The series is described as follows: Chromatin condensation, Hoechst 33342/propidium iodide. Format: cell-based, Leishmania donovani. To be noted: IC90, 24 h.
The subject of series [17] is promastigotes of L. donovani.
Another series deals with T. brucei rhodes. Details: method as in PMID 19513006. The note with it: cited from earlier work.

The structures appear in SMILES notation.

A word on the IC50: it is the midpoint of a concentration-inhibition curve. The term CC50 denotes the concentration at which the toxic effect on the cells reaches its halfway point.

Take `C=C1C(=O)O[C@H]2[C@H]1CC/C(C)=C/CC[C@@]1(C)O[C@@H]21` [Parthenolide (15), parthenolide]: in the series with T. cruzi [1], the IC50 was 2.01 µM.

For `CCCCCCCCCCCCCCCCOP(=O)([O-])OCC[N+](C)(C)C` [Miltefosine, reference compound], in [2], the “Promastigotes L. amazonensis SI” value turned out to be 11.14. In addition, the CC50 at 24 h in series [3] was found to be 72.2 ± 3.06 µM. The “Promastigotes L. donovani SI” value in [4] is listed as 21.74. For the same compound, the “Amastigotes L. amazonensis SI” value in series [5] was 23.17.

As for `C=C1C(=O)O[C@@H]2[C@@H]3[C@@](C)(CC[C@@H]12)[C@H](O)CC[C@]3(C)O` [4b-Hydroxyarbusculin A (11), 4β-hydroxyarbusculin A], the half-maximal inhibitory concentration (IC50) in [2] was 76.4 ± 5.72 µM; in series [8] it was greater than 201 µM; in series [4], greater than 201 µM; in series [5], 15.8 ± 1.01 µM. Also, the “Promastigotes L. amazonensis SI” value in series [2] was greater than 5.27. For the same compound, the “Reactive oxygen species detection” value in [6] was “presence of red fluorescence”. In addition, the “Mitochondrial membrane potential relative to the negative control” value with L. amazonensis [7] was determined as 40.99%. In addition, in series [9], the Plasmatic membrane permeability result was “increase on the plasmatic membrane permeability”. Further, the CC50 at 24 h in [3] was greater than 403 µM. In series [10], the Chromatin condensation result is “induced chromatin condensation”. For the same compound, the “Amastigotes L. amazonensis SI” value in series [5] and in series [5] (listed as 4β-hydroxyarbusculin A (11)) was greater than 25.47 in each case.

Regarding `C=C1CCC2C(=C)C(=O)OC2C=C(C)CCC1O` (centres unmarked) [Artemorin (1), artemorin], the half-inhibitory concentration (IC50) in series [2] was 40.9 ± 2.82 µM; in series [8], 81 ± 12 µM; in [4], greater than 201 µM; in series [5], 40.1 ± 3.44 µM. Besides, in series [2], the “Promastigotes L. amazonensis SI” value was greater than 9.85. Moreover, the “Epimastigotes T. cruzi SI” value in series [8] is recorded as greater than 4.97. The CC50 at 24 h in series [3] was greater than 403 µM. Moreover, in series [5], the “Amastigotes L. amazonensis SI” value is recorded as greater than 10.04.

Consider `C=C1CCC2C(=C)C(=O)OC2C=C(C)CCC1=O` (centres unmarked) [Anhydroartemorin (2), anhydroartemorin], for which the IC50 in series [2] was 25.6 ± 5.88 µM; in series [8] it was 13 ± 4.95 µM; in series [4] it was greater than 102 µM; in series [5], 7.44 ± 0.45 µM. In addition, the “Promastigotes L. amazonensis SI” value in series [2] is 7.00. Besides, the Chromatin condensation entry is given as “caused chromatin condensation” in [11] and “induced chromatin condensation” in series [10]. Further, the “Percentage of ATP relative to the negative control” value in the series on L. amazonensis [12] is listed as 28.76%; in the series on T. cruzi [14] it was 27.17%. In addition, the “Epimastigotes T. cruzi SI” value in [8] was 13.76. Further, the Plasmatic membrane permeability result in [9] and in series [15] was “increase on the plasmatic membrane permeability” in each case. Besides, in series [3], the CC50 at 24 h is 179 ± 2.27 µM. The “Reactive oxygen species detection” value in [13] was “intense fluorescence due to ROS detection”. For the same compound, the “Promastigotes L. donovani SI” value in series [4] is listed as less than 1.76. In addition, the “Amastigotes L. amazonensis SI” value in [5] is on record as 24.06.

As for `C=C1C(=O)OC2C=C(C)CCC=C(COC(C)=O)CCC12` (mixture of isomers) [cis,trans-costunolide-14-acetate (3), cis,trans-costunolide-14-acetate], in series [2], half-maximal inhibition (IC50) required 8.62 ± 1 µM and the “Promastigotes L. amazonensis SI” value stood at 5.92. Besides, the Chromatin condensation result in series [16] is “blue and red fluorescence was produced”. Besides, the Plasmatic membrane permeability entry in series [17] is “increase on the plasmatic membrane permeability”. In series [8], the IC50 turned out to be 8.88 ± 0.91 µM and the “Epimastigotes T. cruzi SI” value worked out at 5.75. In addition, in series [3], the CC50 at 24 h is 51 ± 7.54 µM. In addition, in [4], the half-inhibitory concentration (IC50) is 5.41 ± 1.28 µM and the “Promastigotes L. donovani SI” value stood at 9.43. Moreover, in series [5], the midpoint of inhibition, the IC50, lay at 24.6 ± 3.64 µM and the “Amastigotes L. amazonensis SI” value came out at 2.08.

`C=C1C(=O)OC2C1CCC1(C)C(O)CCC(=C)C21` (centres unmarked) [compound 19]: the “selectivity against T. brucei rhodes” value in the series on T. brucei rhodes was “high selectivity”.
